Measurements reported in patent US10488417B2, “Compounds for use as imaging agents” (United Arab Emirates University, priority 2014, dated 2019).

Legend:
α-synuclein oligomers = target: T1, α-synuclein oligomers (Homo sapiens, UniProt P37840); assay: Binding to α-synuclein oligomers: SEC fractions P1-P3 with UV scanning; details: compound: α-synuclein 4:1, 100 μM α-synuclein, 5 days
T1 construct: GST (N, cleaved yes); made in house; host or cells: E. coli BL21
Description: SEC was carried out using an AKTA FPLC system (GE Healthcare-Sweden) and a superdex 200 column at 4° C., in order to separate the oligomers generated from the aggregation of α-synuclein with the compounds (compound: α-synuclein molar ratio of 4:1). Monomeric α-synuclein at a concentration of 100 μM was aggregated in the presence of the compounds for 5 days as described above. At the end of the aggregation process, the sample was centrifuged for 45 min at 14,000×g at 4° C. generating a supernatant free from insoluble material. Prior to injecting 80% of the generated supernatant, the column was thoroughly equilibrated with SEC running buffer (1×PBS, pH 7.4) and the flow rate was set to 0.1 ml/min (0.5 ml/fraction). The elution of α-synuclein was monitored at absorbance wavelengths of 215 nm, 254 nm, and 280 nm. To determine the elution time of monomeric α-syn, molecular weight standards (ferritin 440 kDa, aldolase 171 kDa, abmumin 68 kDa and chymotrypsinogenA 25 kDa) and monomeric α-synuclein were co-injected into the column and eluted at the same conditions mentioned above.
For the experiments with salvianolic acid B and dihydromyricetin the fractions eluting between 7-8 ml CV were combined and labeled as oligomers (sample P1), and fractions eluting between 12-14 ml CV were combined and labeled as oligomers (sample P2), whereas the fractions eluting in the 14-16 ml CV were combined and labeled as monomers (sample P3). […]
The P1, P2 and P3 samples, representing the oligomeric and monomeric fractions of SEC, were concentrated using a speed vac (CentriVap, Labconco). […] The UV absorbance spectrum was recorded from 200-600 nm in a spectrophotometer (DU-800, Beckman-Coulter) using 10 mm quartz cuvettes (Hellma Analytics-Germany) and employing equal concentrations of the P1, P2 and P3. […]

[1] = test system: BE(2)-M17 human neuroblastoma cells; assay: α-synuclein-induced cytotoxicity, MTT cell viability; assay type: cell-based
Description: BE(2)-M17 human neuroblastoma cells were routinely cultured in Dulbecco's MEM/Nutrient Mix F-12 (1:1) (Gibco BRL, Rockville, Md.) containing 15% fetal bovine serum and 1% penicillin-streptomycin (P/S; 100 U/ml penicillin, […]). The cells were maintained at 37° C. in a humidified incubator with 5% CO2/95% air.
BE(2)-M17 cells suspended in DMEM medium were plated at a density of 15,000 cells (100 μL/well) in a 96-well plate. After 24 hours, the medium was replaced with 200 μL of OPTI-MEM (Gibco-USA) serum-free medium containing aged α-synuclein solutions with or without the compounds. Aged α-synuclein and compound-containing solutions were diluted in OPTI-MEM to obtain the desired concentration. Cells were then incubated at 37° C. in 5% CO2 for 48 hours. A total of 20 μL of MTT (3-(4,5-dimethylthiazol-2-yl)-2,5-diphenyltetrazolium bromide) (Sigma-Aldrich, USA) (6 mg/ml) in PBS was dispensed into each well, and the plate was incubated at 37° C. for 4.5 hours. The MTT-containing medium was carefully removed, and 100 μL of lysis buffer (15% SDS, 50% N,N-dimethylformamide, pH 4.7) was added to each well. The lysis buffer was incubated overnight at 37° C. before the absorbance values at 590 nm were determined by a microplate reader (Perkin Elmer).
BE(2)-M17 human neuroblastoma cells were treated with aged α-synuclein solutions at three different concentrations, 0.5 μM, 1 μM and 5 μM, either alone or in the presence of Gn Rb1, salvianolic acid B or dihydromyricetin.
The viability of cells treated with α-synuclein aged in the presence or absence of the Gn Rb1, salvianolic acid B or dihydromyricetin was determined by the MTT assay. Prior to the experiments, the effect of the Gn Rb1, salvianolic acid B and dihydromyricetin alone on cell viability was assessed (data not shown), employing the same non-toxic Gn Rb1, salvianolic acid B and dihydromyricetin concentrations that were later employed for the experiments with aged α-synuclein.

α-synuclein = target: T2, α-synuclein (Homo sapiens, UniProt P37840); assay: Seeding polymerization assay of α-synuclein monomers (Th-T, TEM); assay type: biochemical; details: for inhibition of the seeding process / inhibition at 50 µM: 6 hours, 100 μM monomeric α-synuclein, 2 μM seeds; for inhibition at 50 µM: read-out: inhibition of the seeding process
T2 construct: GST (N, cleaved yes); made in house; host or cells: E. coli BL21
Description: The aggregation of monomeric α-synuclein with or without seeding was performed as described elsewhere. The seeds were prepared by fragmenting the mature α-synuclein fibrils by sonication to obtain short fibrils, which were employed as ‘seeds’. Briefly, monomeric α-synuclein at a concentration of 100 μM was seeded with 2 μM of seeds and incubated in the presence or absence of the compounds (10 μM or 50 μM) at 37° C. for 6 hours with continuous shaking. The fibrillization was monitored by Th-T binding assay as described above.
To assess the effect of salvianolic acid B, dihydromyricetin and Gn Rb1 on the seeding of α-synuclein aggregation, the compounds were added at concentrations of 10 or 50 μM to 100 μM monomeric α-synuclein containing seeds at a final concentration of 2 μM. The mixture was then incubated with continuous mixing at 37° C. for 6 hours.

[2] = 5 μM aged α-synuclein, all concentrations of compound, 48 hours, MTT

Compound	SEC samples in which compound was detected by UV absorbance (P1, P2 oligomers; P3 monomers) (α-synuclein oligomers)	improvement of viability of the cells ([1]; 1 μM aged α-synuclein, all used concentrations of compound, MTT)	cells surviving [1, 2]	increase in viability of the cells [1, 2]	TEM appearance of seeded α-synuclein with compound (α-synuclein; after 6 h of incubation, compound 50 μM)	inhibition of the seeding process (α-synuclein; compound 10 μM)	inhibition of the seeding process (α-synuclein; compound 50 μM)	improvement of cell viability ([1]; highest concentration, molar ratio of 4:1, MTT)	inhibition at 50 µM (α-synuclein; compound 50 μM) [%]	cells survived ([1]; α-synuclein aged with compound at molar ratios of 4:1 and 2:1, MTT)
CC(C)=CCC[C@](C)(O[C@@H]1O[C@H](CO[C@@H]2O[C@H](CO)[C@@H](O)[C@H](O)[C@H]2O)[C@@H](O)[C@H](O)[C@H]1O)[C@H]1CC[C@]2(C)[C@@H]1[C@H](O)C[C@@H]1[C@@]3(C)CC[C@H](O[C@@H]4O[C@H](CO)[C@@H](O)[C@H](O)[C@H]4O[C@@H]4O[C@H](CO)[C@@H](O)[C@H](O)[C@H]4O)C(C)(C)[C@@H]3CC[C@]12C [Gn Rb1, ginsenoside Rb1]	detected only in the oligomeric P2 samples	approximately 30%	approximately 80%	approximately 30%	mostly globular forms of α-synuclein	approximately 60%	approximately 90%			
O=C1c2c(O)cc(O)cc2O[C@H](c2cc(O)c(O)c(O)c2)[C@H]1O [dihydromyricetin]	detected in both P2 and P3					showed an inhibitory effect		approximately 10%	~90	
O=C(/C=C/c1ccc(O)c2c1[C@H](C(=O)O[C@H](Cc1ccc(O)c(O)c1)C(=O)O)[C@@H](c1ccc(O)c(O)c1)O2)O[C@H](Cc1ccc(O)c(O)c1)C(=O)O [salvianolic acid B]	detected in the P2 sample					to a smaller extent			~90	approximately 95%
